Measurements taken from paper PMC7603405 (Nature, 2020).
“Also recorded” adds a separate entry of the source. Peptide text beside a SMILES is read from it. * marks the point of attachment. Cbz = O=C(OCc1ccccc1)*; CHN2 = [N-]=[N+]=C*

Key:
SARS-CoV-2 USA-WA1/2020 [1] = type: cell-based; conditions: 2.5 and 1 μM, Vero E6, Table S3
[2] = target: SARS-CoV-2 papain-like protease (PLpro) (Severe acute respiratory syndrome coronavirus 2, UniProt P0DTD1); type: biochemical; conditions: 1 to 50 μM
[3] = target: SARS-CoV-2 main protease (Mpro) (Severe acute respiratory syndrome coronavirus 2, UniProt P0DTD1); type: biochemical; conditions: 1 to 50 μM
[4] = cited from earlier work
SARS-CoV-2 USA-WA1/2020 [5] = type: cell-based
SARS-CoV-2 = type: cell-based; conditions: 5 μM; reversed by RAR antagonist Ro41-5253 5 μM
[6] = read-out: Cmax; humans; cited from earlier work
SARS-CoV-2 HKU-001a [7] = type: cell-based
SARS-CoV-2 USA-WA1/2020 [8] = assay: Time-of-addition assay in Vero E6 cells; type: cell-based; conditions: 2.5 μM
SARS-CoV-2 USA-WA1/2020 [9] = assay: Drug synergy quantification with remdesivir in Vero E6 cells; type: cell-based
COVID-19 = COVID-19 patients, NIAID trial; cited from earlier work
SARS-CoV-2 HKU-001a [10] = type: cell-based; conditions: positive control of the screen

## COc1cc(F)cc2c1-c1ccc(F)cc1C21NC(=O)NC1=O (stereo not drawn) [AL 3152]
SARS-CoV-2 USA-WA1/2020 [1]
  validation as inhibitor of SARS-CoV-2 replication: validated

## CC[C@H](NC(=O)[C@H](CS(=O)(=O)CC1CC1)N[C@@H](c1ccc(F)cc1)C(F)(F)F)C(=O)C(=O)NC1CC1 [VBY-825]
[2]
  inhibitory activity upon PLpro: lack potent inhibitory activity
[3]
  inhibitory activity upon 3CLpro / Mpro: lack potent inhibitory activity

## CCN(C(C)=O)c1cccc(-c2ccnc3c(C#N)cnn23)c1 [zaleplon GR]
SARS-CoV-2 USA-WA1/2020 [1]
  validation as inhibitor of SARS-CoV-2 replication: validated

## COc1cc(C)c(/C=C/C(C)=C/C=C/C(C)=C/C(=O)O)c(C)c1C [acitretin]
SARS-CoV-2 USA-WA1/2020 [1]
  validation as inhibitor of SARS-CoV-2 replication: validated; also recorded: confirmed to inhibit SARS-CoV-2 replication

## CC(/C=C/C=C(\C)c1cc(C(C)(C)C)cc(C(C)(C)C)c1)=C\C(=O)O [LGD-1550]
SARS-CoV-2 USA-WA1/2020 [1]
  validation as inhibitor of SARS-CoV-2 replication: validated

## C[C@@H]1CS/C(=N\NC(=O)C(=O)[C@H](NC(=O)C2CCCCCC2)C2CCOCC2)N1C [ONO 5334]
[2]
  inhibitory activity upon PLpro: lack potent inhibitory activity
[4]; treatment of osteoporosis
  tolerability in phase II clinical trials: well tolerated
[3]
  inhibitory activity upon 3CLpro / Mpro: lack potent inhibitory activity
SARS-CoV-2 USA-WA1/2020 [5]
  reduction of number of infected cells: 72%

## CCOC(=O)c1ccc(C#Cc2ccc3c(c2)C(C)(C)CCS3)nc1 [tazarotene]
SARS-CoV-2 USA-WA1/2020 [1]
  validation as inhibitor of SARS-CoV-2 replication: validated
SARS-CoV-2
  effect on viral replication, chemical epistasis: inhibition of viral replication

## Cc1cccc(/C=N/Nc2cc(N3CCOCC3)nc(OCCc3ccccn3)n2)c1 [Apilimod]
[4]; well tolerated
  doses showing a desirable safety profile in humans: ≤ 125 mg BID
[6]
  Cmax: 265 nM
SARS-CoV-2 HKU-001a [7]
  antiviral activity in ex vivo lung culture: potently antagonizes viral replication
SARS-CoV-2 USA-WA1/2020 [5]
  reduction of number of infected cells: 85%
SARS-CoV-2 USA-WA1/2020 [8]
  step of viral life cycle inhibited, time of addition: inhibit viral replication during entry

## CCOC(=O)c1ncc2[nH]c3cccc(OC(C)C)c3c2c1C [ZK-93426]
SARS-CoV-2 USA-WA1/2020 [1]
  validation as inhibitor of SARS-CoV-2 replication: validated

## CCN(CC)CCCNc1ccnc2cc(Cl)ccc12 [AQ-13]
SARS-CoV-2 USA-WA1/2020 [1]
  validation as inhibitor of SARS-CoV-2 replication: validated

## CC1=C(/C=C/C(C)=C/C=C/C(C)=C/C(=O)O)C(C)(C)CCC1 [tretinoin]
SARS-CoV-2 USA-WA1/2020 [1]
  validation as inhibitor of SARS-CoV-2 replication: validated

## CCN(CC)CCCC(C)Nc1ccnc2cc(Cl)ccc12 (stereo not drawn) [chloroquine]
SARS-CoV-2 USA-WA1/2020 [1]
  validation as inhibitor of SARS-CoV-2 replication: confirmed to inhibit SARS-CoV-2 replication

## COc1ccc2cc1Oc1ccc(cc1)C[C@H]1c3cc(c(OC)cc3CCN1C)Oc1c(OC)c(OC)cc3c1[C@H](C2)N(C)CC3 [Hanfangchin A, Tetrandrine]
SARS-CoV-2 USA-WA1/2020 [1]
  validation as inhibitor of SARS-CoV-2 replication: validated
SARS-CoV-2 USA-WA1/2020 [9]
  synergy with remdesivir: notable levels of synergy with remdesivir

## CC(C)CCC(=O)CC1c2ccccc2C(=O)N1c1ccc2ccc(Cl)nc2n1 (stereo not drawn) [pagoclone]
SARS-CoV-2 USA-WA1/2020 [1]
  validation as inhibitor of SARS-CoV-2 replication: validated

## MDL 28170
[2]
  inhibitory activity upon PLpro: lack potent inhibitory activity
[3]
  inhibitory activity upon 3CLpro / Mpro: lack potent inhibitory activity
SARS-CoV-2 USA-WA1/2020 [5]
  reduction of number of infected cells: 65%

## CC(C)CC(NC(=O)OCc1ccccc1)C(=O)NC(C(=O)NCC(=O)C=[N+]=[N-])C(C)C (stereo not drawn) [Z LVG CHN2] (Cbz-Leu-Val-Gly-CHN2; configuration not given here)
[2]
  inhibitory activity upon PLpro: lack potent inhibitory activity
[3]
  inhibitory activity upon 3CLpro / Mpro: lack potent inhibitory activity

## CCC(CC)COC(=O)[C@H](C)N[P@](=O)(OC[C@H]1O[C@@](C#N)(c2ccc3c(N)ncnn23)[C@H](O)[C@@H]1O)Oc1ccccc1 [Remdesivir]
COVID-19
  improved time to recovery in treated patients: 47%

## CC1(C)CCC(C)(C)c2cc(NC(=O)c3ccc(C(=O)O)cc3)ccc21 [tamibarotene]
SARS-CoV-2 USA-WA1/2020 [1]
  validation as inhibitor of SARS-CoV-2 replication: validated

## Cc1cccc(/C=N/Nc2cc(N3CCOCC3)n3nc(-c4ccncc4)cc3n2)c1 [APY0201]
SARS-CoV-2 HKU-001a [10]
  antiviral activity in CPE assay: confirmed the potential antiviral activity

## COc1ccc(CCN2CCC(Nc3nc4ccccc4n3Cc3ccc(F)cc3)CC2)cc1 [Astemizole]
SARS-CoV-2 USA-WA1/2020 [1]
  validation as inhibitor of SARS-CoV-2 replication: confirmed to inhibit SARS-CoV-2 replication
